# From patent publication US20260206761A1, “HETEROARYL-TRIAZOLE COMPOUNDS AS PESTICIDES” (Bayer Aktiengesellschaft, priority 2019, published 2026)
# Key:
# Type in all cases: in vivo
# [1] = system: Rhipicephalus microplus larvae (strain Parkhurst, resistant against synthetic pyrethroids); experiment: Rhipicephalus (Boophilus) microplus in-vitro contact test, larval cattle tick; details: after 48 hours, read-out: activity (efficacy: larvae dead or moribund); for pest or weed control at 100 g/ha: application rate 1 pg/cm^2 (=100 g/ha); for pest or weed control at 500 g/ha: application rate 5 pg/cm^2 (=500 g/ha)
# Procedure, shortened: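 Larvae (20-50 per tube) exposed to dry compound film on glass tube walls, 5 μg/cm^2 at 900 ppm, applied from acetone. After 48 h at 27° C./85% RH, tubes tapped and negative geotaxis scored; efficacy as percent dead or moribund larvae.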
# [2] = system: adult engorged female ticks (Rhipicephalus microplus); experiment: Rhipicephalus (Boophilus) microplus injection test; details: 168 h, egg deposition after 7 days, read-out: activity (efficacy: infertile eggs); for pest or weed control at 4 pg: application rate 4 pg/animal; for pest or weed control at 0.02 mg: application rate 20 μg/animal
# Procedure, shortened: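 Compound in DMSO (10 mg per 0.5 mL, then diluted with DMSO to test concentration); 1 μL injected into the abdomen of each of five engorged females, then held in a climate chamber. Fertile egg deposition checked at 7 days; efficacy 100% = all eggs infertile, 0% = all fertile.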
# [3] = system: adult unfed cat fleas (Ctenocephalides felis); experiment: Ctenocephalides felis oral test; details: 48 h, read-out: activity (mortality)
# Procedure, shortened: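 About 20 adult unfed fleas fed through parafilm on cattle blood containing compound (DMSO stock diluted in blood), blood held at 37 °C and fleas at room temperature. Mortality (%) scored after 2 days.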
# [4] = system: adult brown dog ticks (Rhipicephalus sanguineus); experiment: Rhipicephalus sanguineus in-vitro contact test, adult brown dog ticks; details: after 48 hours, read-out: activity (efficacy: ticks dead or moribund); for pest or weed control at 100 g/ha: application rate 1 pg/cm^2 (=100 g/ha); for pest or weed control at 5 µg/cm2, 500 g/ha: application rate 5 μg/cm^2 (=500 g/ha)
# Procedure, shortened: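 Glass tubes are coated with compound dissolved in acetone, a 900 ppm solution yielding 5 μg/cm^2 on the inner surface. Adult ticks (5-10 per tube) are kept on the dry film at room temperature for 48 h, then those unable to escape 45-50° C heat are counted as dead or moribund.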
# [5] = system: larvae of the banded cucumber beetle (Diabrotica balteata); experiment: Diabrotica balteata spray test; details: 168 h, after 7 days, read-out: activity (efficacy: seedlings grown); for pest or weed control at 100 g/ha: application rate 100 g/ha (=32 pg/well); for pest or weed control at 500 g/ha: application rate 500 g/ha (=160 pg/well)
# Procedure, shortened: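 Read-out is % efficacy at day 7, 0% meaning no seedling growth and 100% growth equal to uninfested untreated controls. Test solutions (acetone/DMF concentrate diluted with water carrying 1000 ppm emulsifier) were sprayed onto 1-day-germinated wheat seeds, 5 per well, before infestation with 10-20 larvae.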
# [6] = system: green peach aphid (Myzus persicae); experiment: Myzus persicae oral test; details: 120 h, application rate 4 ppm, after 5 days
# Procedure, shortened: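 Readout: % mortality at day 5, where 100% = all aphids dead and 0% = none dead. Feeding via parafilm membrane over compound in IPL41 medium (33%+15% sugar); mixed-age population. Stock in acetone (1:100 w/w), water-diluted.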
# [7] = system: larvae of the southern green stink bug (Nezara viridula); experiment: Nezara viridula spray test; details: 96 h, after 4 days; for mortality at 100 g/ha: application rate 100 g/ha
# Procedure, shortened: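 Larva-infested barley (Hordeum vulgare) plants received a spray of test solution prepared from an acetone/DMF concentrate diluted in emulsifier-containing water (1000 ppm). Percent kill read 4 days later; 0% means no stink bugs dead.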
# [8] = system: fall armyworm larvae (Spodoptera frugiperda); experiment: Spodoptera frugiperda spray test; details: 168 h, read-out: activity (mortality)
# Procedure, shortened: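 Larvae of fall armyworm placed on dried maize leaf sections previously sprayed with emulsified compound (acetone/DMF solvent, water with 1000 ppm emulsifier). Percent of caterpillars killed recorded on day 7, 0–100% scale.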
# [9] = system: two spotted spidermite (Tetranychus urticae); experiment: Tetranychus urticae spray test OP-resistant; details: 144 h, after 6 days
# Procedure: Tetranychus urticae—Spray Test OP-Resistant
# Solvent: 78.0 parts by weight acetone • 1.5 parts by weight dimethylformamide
# Emulsifier: alkylarylpolyglycol ether
# To produce a suitable preparation of active compound, 1 part by weight of active compound is mixed with the stated amount of solvents and is diluted with water, containing an emulsifier concentration of 1000 ppm, to the desired concentration. Further test concentrations are prepared by dilution with emulsifier containing water.
# French bean (Phaseolus vulgaris) leaf disks infected with all instars of the two spotted spidermite (Tetranychus urticae), are sprayed with a preparation of the active ingredient of the desired concentration.
# After 6 days mortality in % is determined. 100% means all spider mites have been killed and 0% means none of the spider mites have been killed.
# [10] = system: Aedes aegypti strain MONHEIM; experiment: Aedes aegypti test (AEDSAE surface treatment & contact assay); details: 24 hours after contact, read-out: efficacy (mortality); for mortality at 4 mg/m2: surface concentration 4 mg/m^2, exposure 30 minutes; for mortality at 20 mg/m2: surface concentration 20 mg/m^2, exposure 30 minutes
# Procedure, shortened: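 Percent mortality was read 24 h after adult MONHEIM mosquitoes were held for 30 min on a tile treated with compound. Compound applied from acetone solution (2 mg/ml) containing 2000 ppm rapeseed oil methyl ester, after evaporation.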
# [11] = system: cattle ticks (Rhipicephalus microplus) strain Parkhurst, SP-resistant; experiment: Rhipicephalus (Boophilus) microplus dip test; details: 168 h, application rate 100 ppm, egg deposition after 7 days, read-out: activity (efficacy: infertile eggs)
# Procedure: Rhipicephalus (Boophilus) microplus—Din Test
# Test animal: cattle ticks (Rhipicephalus microplus) strain Parkhurst, SP-resistant
# Solvent: dimethyl sulfoxide
# To produce a suitable preparation of active compound, 10 mg of active compound are dissolved in 0.5 mL solvent, and the concentrate is diluted with water to the desired concentration.
# This compound solution is pipetted into tubes. 8-10 engorged, adult, female cattle ticks (Rhipicephalus microplus) are placed in perforated tubes. These tubes are immersed in the aqueous compound solution until the ticks are completely moistened. After the liquid has drained off, the ticks are transferred to a filter paper in a plastic tray and stored in a climate chamber.
# After 7 days egg deposition of fertile eggs is monitored. Eggs where fertility is not visible are stored in a climate chamber till hatching after about 42 days. An efficacy of 100% means all eggs are infertile; 0% means all eggs are fertile.
# [12] = system: Culex quinquefasciatus strain P00; experiment: Culex quinquefasciatus test (CULXFA surface treatment & contact assay); details: 24 hours after contact, read-out: efficacy (mortality); for mortality at 4 mg/m2: surface concentration 4 mg/m^2, exposure 30 minutes
# Procedure: Culex quinquefasciatus Test (CULXFA Surface Treatment & Contact Assay)
# (§1) Solvent: Aceton+2000 ppm rapeseed oil methyl ester (RME)
# (§2) In order to produce a sufficient, active ingredient containing solution it is necessary to solve the test compound in the solvent-mix (acetone at 2 mg/ml/RME 2 000 ppm). This solution is pipetted onto a glazed tile and after evaporation of the acetone, adult mosquitoes of the species Culex quinquefasciatus strain P00 are placed onto the dried surface. The exposure time is 30 minutes. Mortality in percent (%) is determined 24 hours after contact of the insects to the treated surface. 100% mortality means that all tested insects are dead, whereas 0% means that no insect died.
# [13] = system: adult cat fleas (Ctenocephalides felis); experiment: Ctenocephalides felis in-vitro contact test, adult cat flea; details: application rate 5 μg/cm^2 (=500 g/ha), after 48 hours, read-out: activity (efficacy: fleas dead or moribund)
# Procedure, shortened: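 Efficacy, as % of fleas dead or moribund, was read 48 h after 5-10 adult cat fleas were confined in glass tubes whose walls carried dried compound film (900 ppm, […]). Fleas failing to escape upward from a 45-50° C plate within 5 min counted as dead or moribund.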
# [14] = system: green peach aphid (Myzus persicae); experiment: Myzus persicae spray test; details: 120 h, application rate 500 g/ha, after 5 days
# Procedure, shortened: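 Chinese cabbage leaf disks carrying all instars of M. persicae sprayed with compound in acetone/DMF, diluted in water with 1000 ppm alkylarylpolyglycol ether emulsifier. Percent mortality scored after 5 days (100% = all aphids killed).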
# [15] = system: Anopheles funestus strain FUMOZ-R; experiment: Anopheles funestus test (ANPHFU surface treatment & contact assay); details: 24 hours after contact, read-out: efficacy (mortality); for mortality at 4 mg/m2: surface concentration 4 mg/m^2, exposure 30 minutes; for mortality at 20 mg/m2: surface concentration 20 mg/m^2, exposure 30 minutes
# Procedure: Anopheles funestus Test (ANPHFU Surface Treatment & Contact Assay)
# as §1
# as §2, with “2000” for “2 000”, “Anopheles funestus” for “Culex quinquefasciatus”, “FUMOZ-R (Hunt et al., Med. Vet. Entomol. 2005 September; 19(3): 271-275)” for “P00”
# [16] = system: Blattella germanica strain PAULINIA; experiment: whole plant or invertebrate; details: read-out: efficacy (mortality)
# Procedure: Blattella germanica Test (BLTTGE Surface Treatment & Contact Assay)
# as §1
# In order to produce a sufficient, active ingredient containing solution it is necessary to solve the test compound in the solvent-mix (acetone at 2 mg/ml/RME 2000 ppm). This solution is pipetted onto a glazed tile and after evaporation of the acetone, adult animals of the species Blattella germanica strain PAULINIA are placed onto the dried surface. The exposure time is 30 minutes.
# Mortality in percent (%) is determined 24 hours after contact of the insects to the treated surface. 100% mortality means that all tested insects are dead, whereas 0% means that no insect died.
SMILES,pest or weed control at 100 g/ha [1],pest or weed control at 500 g/ha [1],pest or weed control at 4 pg [2],pest or weed control at 0.02 mg [2],mortality at 100 ppm [3],pest or weed control at 100 g/ha [4],pest or weed control at 100 g/ha [5],pest or weed control at 500 g/ha [5],mortality at 4 ppm [6],mortality at 100 g/ha [7],mortality at 100 g/ha [8],mortality at 4 mg/m2 [10],mortality at 20 mg/m2 [10],"pest or weed control at 5 µg/cm2, 500 g/ha [4]",mortality at 4 mg/m2 [12],pest or weed control at 5 µg/cm2 [13],mortality at 4 mg/m2 [15],mortality at 20 mg/m2 [15],also measured
CCS(=O)(=O)c1cc(C(=O)N[C@@H](C)c2ncnn2-c2ccc(C#N)cn2)cc(C(F)(F)F)c1 [II-33],100%,100%,100%,100%,100%,80%,100%,100%,100%,100%,100%,80 to 100%,80 to 100%,–,–,–,–,–,mortality at 500 g/ha ([7]; application rate 500 g/ha): 100%; mortality at 500 g/ha [8]: 83%; mortality at 100 g/ha ([9]; application rate 100 g/ha): 90%
C[C@H](NC(=O)c1cc(C(F)(F)F)cc(S(=O)(=O)C2CC2)c1)c1nc(C2CC2)nn1-c1ccc(C#N)cn1 [I-15],100%,100%,100%,100%,100%,100%,–,–,100%,–,100%,–,80 to 100%,100%,80 to 100%,–,–,–,pest or weed control at 100 ppm [11]: 80%
Cc1nc([C@H](C)NC(=O)c2csc(Cl)c2)n(-c2ncccn2)n1 [II-24],–,–,100%,100%,–,100%,–,80%,–,–,–,80 to 100%,80 to 100%,100%,80 to 100%,100%,80 to 100%,80 to 100%,"mortality at 500 g/ha [14]: 90%; mortality at 500 g/ha ([9]; application rate 500 g/ha): 90%; mortality at 20 mg/m2 ([12]; surface concentration 20 mg/m^2, exposure 30 minutes): 80 to 100%"
CC(NC(=O)c1cc(Cl)cc(S(C)(=O)=O)c1)c1nc(Br)nn1-c1ncccn1 (centres unmarked) [I-34],–,–,100%,–,100%,–,100%,–,100%,100%,–,80 to 100%,80 to 100%,–,–,90%,80 to 100%,80 to 100%,mortality at 20 mg/m2 [16]: 80 to 100%
